Like-named read-outs stand apart in the source and are kept apart here.

Data on 2 compounds can be found in patent US5750540A, “1,4-di-substituted piperidine derivatives” (Banyu Pharmaceutical Co., Ltd., priority 1995, dated 1998).

Assay [1] deals with muscarinic M3 receptor. Nature of the assay: in vivo. The conditions noted are these: rat, i.v., Table 3. The protocol: (§1) Tests for antagonism against muscarinic M3 receptor (in vivo)
(§2) 1) Tests for bronchodilation in rats
(§3) Eight- to eleven-weeks-old male rats of the Sprague-Dawley strain, weighing 300-400 g, were anesthetized with urethane (750 mg/kg, i.p.) and a-chloralose (37.5 mg/kg, i.p.). A bronchus was intubated, and the right jugular vein was cannulated for drug administration. […] To evoke an increase in airway resistance, acetylcholine (50 μg/kg, i.v.) was administered to the animals. Mean values for the acetylcholine-induced increase in airway resistance as measured five minutes before (control) and five minutes after test compound administration were calculated and the results were expressed as percentages of the control response. The ID50 value was calculated from the dose-response curve of the test compound using probit analysis and defined as the drug dose that inhibited the acetylcholine-induced increase in airway resistance in the control group by 50 %.

Assay [2] addresses T1, muscarinic M3 receptor (Rattus norvegicus, UniProt P08483). In words: in vivo. On the set-up: from tissue; host or cells: living rat, airways. To be noted: iv, read-out: Salivary secretion ID50. The protocol:
as §1
2) Tests for salivary secretion in rats
Five- to seven-weeks-old male rats of the Sprague-Dawley strain were anesthetized with sodium pentobarbital (65 mg/kg, i.p.), and a cannula was inserted into the right jugular vein for purposes of drug administration. A test compound was administered intravenously. Five minutes later, carbachol (10 μg/kg, i.v.) was administered to evoke salivary secretion. For each rat, saliva collection was started immediately after carbachol administration and continued for ten minutes. This was carried out by inserting glass capillaries (Drummond, 100 μl) into the oral cavity of the rat at intervals of one minute. The amount of collected saliva was determined on the assumption that a length of 75 mm of the glass capillary corresponded to 100 μl. Physiological saline was used in the control group. The ID50 value was calculated from the dose-response curve of the test compound using probit analysis and defined as the drug dose that inhibited the carbachol-induced salivation in the control group by 50%.

For assay [3], the target named is T1, muscarinic M3 receptor. Nature of the assay: Intravesical bladder pressure in rats. On the set-up: from tissue. The conditions noted are these: i.v., 25% inhibition of peak intravesical bladder pressure. The format is in vivo. The protocol: as §1
4) Tests for intravesical bladder pressure in rats
These tests were performed according to the method of Maggi et al. (Drug Dev. Res. 10: 157-170, 1987). Briefly, eight- to ten-weeks-old male rats of the Sprague-Dawley strain, weighing 330-370 g, were anesthetized by subcutaneous administration of urethane (1 g/kg) and α-chloralose (50 mg/kg), and the right jugular vein was cannulated for drug administration. The body temperature was kept constant by means of a heating pad maintained at 37° C. Through a midline incision of the abdomen, the urinary bladder was exposed and emptied of urine by the application of a slight manual pressure. A 20-gauge needle was inserted through the apex of the bladder dome by 3-4 mm into its lumen. The needle had previously been connected to a pressure transducer and an infusion pump by means of polyethylene tubing and the whole system filled with saline. After a 30-minutes equilibration period at zero volume, saline was infused (2.8 ml/hr) until a coordinated sustained contraction, reflecting the peak intravesical bladder pressure, occured. The bladder was then emptied manually and allowed to rest for five minutes. PvesP was defined as the difference between the maximum and resting bladder pressures. This procedure was repeated at least five times and the evaluation of a test compound was carried out in the animals in which a stable peak intravesical bladder pressure was recorded. The drug potency (ID25 ) was determined after intravenous administration of the test compound during the rest period. Five minutes after drug administration, the infusion of saline was started to induce micturition contraction and the peak intravesical bladder pressure was recorded. The depression in peak intravesical bladder pressure was expressed as a percent of the control peak intravesical bladder pressure observed before administration of the test compound. The ID25 value, calculated by probit analysis, was defined as the drug dose that inhibited the control peak intravesical bladder pressure by 25%.

Assay [4] deals with T1, muscarinic M3 receptor. Nature of the assay: in vivo. Also noted: from tissue; host or cells: living rat, airways. To be noted: iv, read-out: Mydriasis ED50. The protocol: as §1
3) Tests for mydriasis in rats
Five- to seven-weeks-old male rats of the Sprague-Dawley strain were anesthetized with pentobarbital (65 mg/kg, i.p.), and a cannula was inserted into the right jugular vein for purposes of drug administration. By using a graduated scale (pulilometer), pupillary responses to drugs were measured to the nearest 0.1 mm at the point of the greatest diameter. […] Responses were expressed as percentages of the maximal increase in pupil diameter induced by administration of atropine (30 μg/kg, i.v.). The ED50 value was calculated from the dose-response curve of the test compound using probit analysis and defined as the drug dose that induced 50% of the maximal response.

The target of assay [5] is T1, muscarinic M3 receptor. In words: in vivo. The conditions noted are these: iv, 5 min, read-out: Airway contraction ID50. On the set-up: from tissue; host or cells: living rat, airways. The protocol: as §1, §2, §3
The target in assay [6] is T1, muscarinic M3 receptor. In words: Intestinal propulsion in rats (charcoal meal). In kind it is in vivo. Also noted: from tissue. The conditions noted are these: i.v., 15% inhibition of intestinal propulsion. The method, then:
as §1
5) Tests for intestinal propulsion in rats
Five- to seven-weeks-old male rats of the Sprague-Dawley strain were fasted overnight. A test compound was administered intravenously to the animals. Five minutes later, 1 ml per animal of a 5% charcoal suspension was administered orally. Thirty minutes after administration of the charcoal meal, the rats were sacrificed by decapitation, and the gastrointestinal tract was removed. The distance from the pylorus to the point of arrival of the charcoal meal was measured and the transportation rate was calculated. The ID15 value was calculated from the dose-response curve using probit analysis and defined as the drug dose that inhibited intestinal propulsion in the control group by 15%.

A further assay has as its target T2, muscarinic M2 receptors (Rattus norvegicus, UniProt P10980).
T2 construct: a membrane specimen from the heart was used as the membrane specimen; from tissue; host or cells: rat heart membranes (SD rat)
T2 sequence (P10980 1-466): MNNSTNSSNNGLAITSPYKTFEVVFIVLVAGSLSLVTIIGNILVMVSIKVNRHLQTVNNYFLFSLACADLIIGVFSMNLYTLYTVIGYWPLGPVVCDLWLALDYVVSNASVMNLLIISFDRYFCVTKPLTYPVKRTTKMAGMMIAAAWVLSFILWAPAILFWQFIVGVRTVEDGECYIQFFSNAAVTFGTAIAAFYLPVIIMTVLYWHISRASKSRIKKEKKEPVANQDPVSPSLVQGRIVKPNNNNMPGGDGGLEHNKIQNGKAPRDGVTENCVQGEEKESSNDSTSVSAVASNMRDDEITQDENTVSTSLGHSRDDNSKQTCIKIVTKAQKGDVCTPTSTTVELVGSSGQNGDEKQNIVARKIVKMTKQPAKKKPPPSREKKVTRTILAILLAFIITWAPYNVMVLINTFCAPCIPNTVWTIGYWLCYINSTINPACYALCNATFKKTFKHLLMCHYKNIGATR
Nature of the assay: Bradycardia in rats (acetylcholine-induced). The format is in vivo. The conditions noted are these: iv, 5 min, i.v., 5 minutes after administration, 50% inhibition of acetylcholine-induced bradycardia, read-out: Bradycardia ID50. The protocol: 6) Tests for bradycardia in rats
Eight- to eleven-weeks-old male rats of the Sprague-Dawley strain, weighing 300-400 g, were anesthetized with urethane (750 mg/kg, i.p.) and α-chloralose (37.5 mg/kg, i.p.). A bronchus was intubated, and the right jugular vein was cannulated for drug administration. […] To evoke bradycardia, acetylcholine (50 μg/kg, i.v.) was administered to the animals. Mean values for the acetylcholine-induced decrease in heart rate as measured five minutes before (control) and five minutes after test compound administration were calculated and the results were expressed as percentages relative to the control response. The ID50 value was calculated from the dose-response curve of the test compound using probit analysis and defined as the drug dose that inhibited the acetylcholine-induced bradycardia in the control group by 50%.

T1 sequence (P08483 whole entry): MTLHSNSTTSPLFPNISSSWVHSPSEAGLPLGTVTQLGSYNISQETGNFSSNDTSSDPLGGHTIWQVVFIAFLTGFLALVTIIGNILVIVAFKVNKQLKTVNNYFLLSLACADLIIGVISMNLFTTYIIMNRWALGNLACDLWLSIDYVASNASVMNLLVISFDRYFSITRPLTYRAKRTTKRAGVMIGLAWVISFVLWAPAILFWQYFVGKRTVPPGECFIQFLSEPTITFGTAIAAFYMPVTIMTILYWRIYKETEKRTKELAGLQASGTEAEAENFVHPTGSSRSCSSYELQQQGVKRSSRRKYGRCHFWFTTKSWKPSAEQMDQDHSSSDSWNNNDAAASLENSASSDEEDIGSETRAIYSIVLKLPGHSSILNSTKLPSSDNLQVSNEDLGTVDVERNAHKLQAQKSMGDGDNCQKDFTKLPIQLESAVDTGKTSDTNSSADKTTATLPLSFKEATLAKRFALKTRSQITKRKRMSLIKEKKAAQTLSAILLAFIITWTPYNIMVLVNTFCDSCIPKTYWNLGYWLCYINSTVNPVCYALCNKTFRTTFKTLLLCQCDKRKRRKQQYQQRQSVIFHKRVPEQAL

Regarding `CC(C)[N+]1(C)[C@@H]2CC[C@H]1C[C@@H](OC(=O)C(CO)c1ccccc1)C2` (stereo partly shown) [Ipratropium], the “Activity with respect to all of the six types of responses (in words)” value in the assay with muscarinic M3 receptor [1] is “potent activities”. In addition, the “Selectivity over the six types of responses (in words)” value in the assay on muscarinic M3 receptor [1] is listed as “non-selective”. Also, the ED50 was 1.8 µg/kg at muscarinic M3 receptor [2], 4.1 µg/kg at muscarinic M3 receptor [4], 1.5 µg/kg at muscarinic M3 receptor [5] and 1.8 µg/kg at muscarinic M2 receptors. For the same compound, the “Urinating contraction ID25” value at muscarinic M3 receptor [3] is recorded as 0.0048 mg/kg i.v. Also, at muscarinic M3 receptor [6], the “Enterokinesis ID15” value stood at 0.004 mg/kg i.v.
`CN1[C@@H]2CC[C@H]1C[C@@H](OC(=O)C(CO)c1ccccc1)C2` (stereo partly shown) [Atropine]: in the assay with muscarinic M3 receptor [1], the “Activity with respect to all of the six types of responses (in words)” value is reported as “potent activities”. The “Selectivity over the six types of responses (in words)” value in the assay with muscarinic M3 receptor [1] is on record as “non-selective”. Besides, the ED50 is 2.2 µg/kg on muscarinic M3 receptor [2], 18 µg/kg at muscarinic M3 receptor [4], 4.3 µg/kg on muscarinic M3 receptor [5] and 3.7 µg/kg on muscarinic M2 receptors. On muscarinic M3 receptor [3], the “Urinating contraction ID25” value is given as 0.027 mg/kg i.v. Also, the “Enterokinesis ID15” value at muscarinic M3 receptor [6] is listed as 0.019 mg/kg i.v.
